Reference: the supplement of paper PMC8988213
Structures can show the parent of a compound that is named as a salt.

Assays:
[1] = system: ID211 patient-derived PDAC 2D line (post-FOLFIRINOX); experiment: normalised area under dose-response curve (viability relative to DMSO, 7 doses up to 10 µM) (fraction (AUC)); higher = less sensitive (more viability retained); conditions: 72 h; top dose: 10 µM
Method in brief: (§1)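 2D PDAC cells grown out from patient-derived organoids were robotically seeded in 96-well plates at 1,500–3,000 cells/well and kept overnight at 37°C in 5% CO2. Compounds from a SelleckChem library were then applied for 72 h at seven concentrations, made as a 3-fold dilution series with 10 µM as the highest. CellTiter-Glo luminescence was measured 10 min later. Viability was normalised to control wells, and the GRmetrics R package was used to derive the area under the dose-response curve.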

[2] = system: ID188 patient-derived PDAC 2D line (pre-FOLFIRINOX); experiment: as above; conditions: 72 h; top dose: 10 µM
Method in brief: as §1

| Compound | normalised area under dose-response curve [1] | normalised area under dose-response curve [2] |
| --- | --- | --- |
| CN[C@@H](C)C(=O)N[C@H](C(=O)N1CCC[C@H]1C(=O)Nc1snnc1-c1ccccc1)C1CCCCC1 [GDC-0152] | 0.849 | 0.667 |
| Cc1cn(CCN2CCN(c3ccccc3-c3cc(C#N)cc(C(=O)NCCCN4CCCC4)c3)CC2)c2ccccc12 [LLY-507] | 0.842 | 0.859 |
| COc1ccccc1C(=O)Nc1cc2c(cc1N1CCCC1)n(C)c(=O)n2C [PFI-4] | 0.787 | 0.955 |
| Cc1cnc(NC(=O)Nc2cc(Br)c(C)cc2OC[C@@H]2CNCCO2)cn1 | 0.869 | 0.731 |
| NC(=O)C1CCCc2c1[nH]c1ccc(Cl)cc21 (configuration not stated) [Selisistat (EX 527)] | 0.997 | 0.971 |
| Cc1cc(CS(=O)(=O)c2ccccc2)cc(OCc2ccc(CN3CCC[C@@H]3CO)cc2)c1 [PF-543] | 0.903 | 0.924 |
| CC(=O)N1c2ccc(-c3ccc(C(=O)O)cc3)cc2[C@H](Nc2ccc(Cl)cc2)C[C@@H]1C | 0.732 | 0.815 |
| COc1cc2c(cc1OC)[C@@H]1C(=O)c3ccc4c(c3O[C@@H]1CO2)C=CC(C)(C)O4 [Deguelin] | 0.75 | 0.886 |
| O=c1[nH]cc(F)c(=O)[nH]1 [Fluorouracil (5-Fluoracil, 5-FU)] | 0.804 | 0.854 |
| Cc1ccc2nc(CN(CCN(Cc3nc4ccc(C)cc4[nH]3)Cc3nc4ccc(C)cc4[nH]3)Cc3nc4ccc(C)cc4[nH]3)[nH]c2c1 | 0.676 | 1.03 |
| Cc1c(CN2CCC(Nc3ncnc4sc(CC(F)(F)F)cc34)CC2)ccc2c1cc(C#N)n2Cc1cn[nH]c1 [MI-503] | 0.805 | 0.871 |
| Nc1nccc(Oc2ccc3c(C(=O)Nc4cccc(C(F)(F)F)c4)cccc3c2)n1 [BAW2881 (NVP-BAW2881)] | 0.961 | 0.885 |
| CN1CCN(C(=O)/C=C/c2ccc([N+](=O)[O-])o2)CC1 | 0.937 | 0.954 |
| Cc1c[nH]c2nc(Nc3ccc(N4CCN(C)CC4)c(F)c3)nc(-c3cccc(CC#N)c3)c12 [SGI-7079] | 0.638 | 0.803 |
| CNc1nc(-c2ccc3c(N)n[nH]c3c2)cc(N2C[C@@H](C(=O)NC3CCCCC3)CC[C@H]2C)n1 | 0.71 | 0.869 |
| COc1cc2c(cc1OC(C)C)[C@H](c1ccc(Cl)cc1)N(c1ccc(N(C)C[C@H]3CC[C@H](N4CCN(C)C(=O)C4)CC3)cc1)C(=O)C2 [NVP-CGM097] | 0.72 | 0.988 |
| O=C1NC(=O)C(c2cnc3ccccn23)=C1c1cn2c3c(cc(F)cc13)CN(C(=O)N1CCCCC1)CC2 | 0.259 | 1.04 |
| CCC[C@H](NC(=O)/C(C#N)=C/c1cccc(Br)n1)c1ccccc1 [Degrasyn (WP1130)] | 0.82 | 0.869 |
| CCc1c2c(nc3ccc(OC(=O)N4CCC(N5CCCCC5)CC4)cc13)-c1cc3c(c(=O)n1C2)COC(=O)[C@]3(O)CC [Irinotecan HCl Trihydrate] | 0.807 | 0.847 |
| CCOc1ccccc1-n1c(C(C)N2CCN(C(=O)COc3ccc(Cl)cc3)CC2)nc2ccccc2c1=O (configuration not stated) [Erastin] | 0.813 | 0.856 |
| COc1cc(-n2c(=S)[nH]c3ccccc3c2=O)c(Cl)cc1Cl [Mdivi-1] | 0.957 | 0.885 |
| COc1cc2c(c(OC)c1OC)-c1ccc(OC)c(=O)cc1[C@@H](NC(C)=O)CC2 [Colchicine] | 0.589 | 0.562 |
| CCN1CCN(Cc2ccc(C(=O)Nc3ccc(C)c(Oc4ccc5c(c4)CC(=O)N5)c3)cc2C(F)(F)F)CC1 [DDR1-IN-1] | 0.908 | 0.934 |

| Compound | normalised area under dose-response curve [1] | normalised area under dose-response curve [2] |
| --- | --- | --- |
| Cc1cc(Nc2nc(N[C@@H](C)c3ncc(F)cn3)ncc2Cl)[nH]n1 [AZD1480] | 0.766 | 0.952 |
| Cc1[nH]c2ccccc2c1CCNCc1ccc(/C=C/C(=O)NO)cc1 [Panobinostat (LBH589)] | 0.306 | 0.421 |
| Cc1nc(Nc2cnn(C3CCNCC3)c2)nc2c1N(C)C(=O)c1cc3ccccc3cc1N2C [HTH-01-015] | 0.823 | 1.2 |
| COc1cc2c(cc1OCCCN1CCCC1)N=C(N)C21CCC1 [A-366] | 0.895 | 0.983 |
| COc1ccc(-c2ccc3c(N4CCOCC4)nc(N4C[C@@H](C)O[C@@H](C)C4)nc3n2)cc1CO | 0.831 | 0.825 |
| COC[C@H](NC(=O)c1cnc(C)s1)C(=O)N[C@@H](COC)C(=O)N[C@@H](Cc1ccccc1)C(=O)[C@@]1(C)CO1 [Oprozomib (ONX 0912)] | 0.333 | 0.427 |
| COc1nc(OCc2cccc(-c3ccccc3)c2C)ccc1CNCCNC(C)=O [BMS202 (PD-1PD-L1 inhibitor 2)] | 0.905 | 0.99 |
| CNCCN(C)Cc1c[nH]nc1-c1ccc(O[C@H]2C[C@H](OCCC3CCOCC3)C2)cc1 | 0.92 | 0.779 |
| CC(C)(C)C(=O)N1N=CC[C@H]1c1ccccc1 [GSK963] | 0.857 | 0.939 |
| c1cn2cc(-c3ccc4cn[nH]c4c3)nc(Nc3ccc(N4CCOCC4)cc3)c2n1 [Entospletinib (GS-9973)] | 0.792 | 0.891 |
| Cc1c(CN2CCN(C(=O)[C@H](C)O)CC2)sc2c(N3CCOCC3)nc(-c3cnc(N)nc3)nc12 [Apitolisib (GDC-0980, RG7422)] | 0.54 | 0.606 |
| Cc1cc(Nc2cc(N)ncn2)c(=O)n2c1C(=O)NC21CCCCC1 [eFT-508 (eFT508)] | 1.01 | 0.977 |
| CC(C)n1c(/C=C/C(O)CC(O)CC(=O)O)c(-c2ccc(F)cc2)c2ccccc21 (configuration not stated) [Fluvastatin Sodium] | 0.807 | 0.87 |
| Nc1cccc(S(=O)(=O)N2CCCN(S(=O)(=O)c3ccc4c(c3)OCCO4)CC2)c1 [DASA-58] | 0.808 | 0.918 |
| C[C@@H]1CN(CC(=O)Nc2ccc3c(c2)Cc2cccc(-c4cc(=O)cc(N5CCOCC5)o4)c2S3)C[C@H](C)O1 | 0.842 | 0.936 |
| COc1cc2c(cc1OC)CN(CCc1ccc(NC(=O)c3cccc4c(=O)c5cccc(OC)c5[nH]c34)cc1)CC2 | 0.682 | 1.02 |
| CCn1c2ccccc2c2cc(CNCc3ccccc3OC)ccc21 [HLCL-61 HCL] | 0.856 | 0.957 |
| CN(NC(=O)CC(=O)NN(C)C(=S)c1ccccc1)C(=S)c1ccccc1 [Elesclomol (STA-4783)] | 0.0189 | 0.179 |
| Cc1ccc(S(=O)(=O)/C=C/C#N)cc1 [BAY 11-7082] | 0.839 | 0.957 |
| C[C@]1(c2nc3c(C(N)=O)cccc3[nH]2)CCCN1 [Veliparib (ABT-888)] | 0.923 | 0.913 |
| Oc1nc(-c2ccc(C(F)(F)F)cc2)nc2c1CSCC2 [XAV-939] | 0.928 | 0.89 |
| CC(=O)c1c(C)c2cnc(Nc3ccc(N4CCNCC4)cn3)nc2n(C2CCCC2)c1=O | 0.865 | 0.882 |
| Cc1cc(C)c(CNC(=O)c2cc(-c3ccc(CN4CCOCC4)cc3)cc3c2cnn3C2CCCC2)c(=O)[nH]1 | 0.812 | 0.896 |
